Experimental data published in patent US20220079962A1, “NUTRITIONAL COMPOSITION COMPRISING 2'FUCOSYLLACTOSE AND DIETARY BUTYRATE” (N.V. Nutricia, priority 2019, published 2022).

Key:
[1] = tested on: Klebsiella pneumonia K2; test: Fecal slurry fermentation spiked with pathogens, Klebsiella growth; settings: inoculum of baby 2
Experimental: (§1) In addition the test legs were supplemented with Clostridium difficile C153 (difficile agar), Salmonella enteriditis S29 (XLD agar), Cronobacter sakasakii E71 (chromogenic agar) or Klebsiella pneumonia K2 (Simons citrate inositol agar). For every NDO and for the control also a pathogen free culture was prepared.
(§2) The experiment was started, and pH setpoint was either 5.5 (facial inoculum from infant 1, vaginally born, breast fed) or pH 6.0 (Inoculum from infant 2, vaginally born, breast fed) with continuous pH regulation, and temperature 37° C., humidity 85%, OD control. At 4, 8 and 24 hours a sample is taken for CFU determination on TOS-propionate MUP agar (total Bifidobacteria), XLD agar for Salmonella enteriditis S29, and Simons citrate inositol agar for Klebsiella pneumonia K2 and for SCFA, D- and L Lactate and ammonia analysis. Fecal pellet was used for 16s DNA sequencing. For both inocula the extent of fermentation, as measured by NaOH consumption, i.e. acid production, was highest with the combination of 3′-GU2′-FL, when compared to 3′-GL or 2′-FL alone. The rate of initial acidification was high for 3′-GL and for 3′-GL/2′-FL. […] As the amount of carbohydrates that can be fermented is the same in the reaction vessels, the higher total acidification with the combination is indicative for an unexpected, synergistic effect of the combination of 2′-FL and 3′-GL. […]

[2] = tested on: human peripheral blood mononuclear cells (PBMC); test: PBMC cytokine levels, CD3/CD28 stimulated condition; type: cell-based; settings: for Relative level of CCL17, observed / Relative level of IL-4, observed / Relative level of IL-13, observed: blanc = 1, 0.2 wt % 2′-FL, 0.1 wt % 3′-GL, mean
Experimental: Isolation of PBMC from healthy donors: Human peripheral blood mononuclear cells (PBMC) from healthy donors were isolated from buffy coats (Sanquin, Amsterdam, the Netherlands). PBMC were obtained by centrifugation using Leucosep tubes (Greiner Bio-One). PBMC were collected and washed in PBS (Gibco, Thermo Fisher Technologies)+2% heat-inactivated FCS (Invitrogen), followed by hypotonic lysis of erythrocytes with sterile lysis buffer (0.15 M NH4Cl, 0.01 M KHCO3 and 0.1 mM EDTA, pH of 7.4 at 4° C., all from Merck, Darmstadt, Germany). After lysis, the PBMC were resuspended in freezing medium (70% RPMI 1640 medium (Gibco, Thermo Fisher Technologies) supplemented with 10% heat-inactivated FCS and 100 U/ml penicillin-streptomycin, 20% heat-inactivated FCS and 10% DMSO (Sigma)) and cryopreserved.
PBMC activation model: PBMC (0.2.10^6 cell/well) were cultured in 96-well flat bottom plates (Corning). For 24 hours the cells were pre-incubated with 2′-FL (Jennewein), 3′-GL (0-0.3% w/v; Carbosynth) or sodium butyrate (0.2 mM; Sigma Aldrich) and combinations thereof. Subsequently, the cells were CD3/CD28-activated (Pelicluster CD3 and Pelicluster CD28, Sanquin) for an additional 24 hours. After incubation, IFNγ was measured by ELISA in the supernatants (see below). To determine cell activity after stimulation, PBMC were incubated with cell proliferation reagent WST-1 (10 μl; Roche) and/or 10% Triton (5 μl; negative control). After 3 hours, absorbance was measured at OD450 nm and OD650 nm and cell activity was calculated according to manufacturer's instructions.
Cytokine production of PBMC: PBMC were incubated with indicated reagents. After incubation, the supernatants were collected and IL2, IL6, IL10, IL13, IL21, TNFα, IFNγ, MIF, CCL1, CCL13, CCL17, CCL20, CCL22 and CXCL8-11 levels were measured by conducting a validated multiplex immunoassay based on Luminex technology (xMAP, Luminex Austin Tex. USA). Acquisition was conducted with the Biorad FlexMAP3D (Biorad laboratories, Hercules USA) in combination with xPONENT software version 4.2 (Luminex). Data was analyzed by 5-parametric curve fitting using Bio-Plex Manager software, version 6.1.1 (Biorad).
After PBMC stimulation, cell culture supernatants were collected, after which cytokine responses were measured in order to test immune responsiveness of the cells. […] In addition, since each donor is reacting in its own efficiency onto the T cell stimulus, we calculated the individual index of cytokine response by dividing the intervention induced response by the basal stimulated response.
Subsequently, in order to test the direct effect of specific compounds on PBMC activity, the cells were activated with CD3/CD28 for 24 hours after a pre-incubated for 24 h with either 2′-FL, 3′-GL and combinations thereof. In addition, since each donor is reacting in its own efficiency onto the T cell stimulus, the individual index of cytokine response was calculated by dividing the intervention induced response by the basal stimulated response (the blanc is set at 1). In this way the intervention within 10 different donors has been studied.

[3] = tested on: fecal slurry microbiota of breast fed infants; test: Anaerobic fermentation of infant fecal slurry (BioLector Pro), acidification; parameters: species or system human; settings: no pathogen spiking
Experimental: Anaerobic fermentation of fecal slurry samples was tested in a BioLector Pro microfluidics mini multifermentor. Fecal slurry samples were collected from breast fed infants and from formula fed infants. These fecal slurry samples were processed by adding 0.6 grams feces in 40 ml Baby Reichardt V.6 medium+mucus+Ammonium sulfate+lactate and acetate. The resulting solutions were inserted to the BioLector Pro microfluidics mini multifermentor. The test legs were supplemented with 3-GL, 2′-FL, 3-GL+2′-FL, and GOS/FOS. The control leg was supplemented with sterile water.
After fermentation the fermented solutions were tested for SCFA content (in particular acetic acid, propionic acid, butyric acid and isobutyric acid), ammonia content, lactate content and pathogen concentration. Also DNA-isolation+identification and 16s sequencing was performed to determine the composition of the microbiota.
A 32 well plate that can handle low pH was used. […]
The experiment was started, and pH setpoint was either 5.5 (facial inoculum from infant 1, vaginally born, breast fed) or pH 6.0 (Inoculum from infant 2, vaginally born, breast fed) with continuous pH regulation, and temperature 37° C., humidity 85%, OD control. […] For both inocula the extent of fermentation, as measured by NaOH consumption, i.e. acid production, was highest with the combination of 3′-GU2′-FL, when compared to 3′-GL or 2′-FL alone. […]

[4] = tested on: Salmonella enteriditis S29; test: Fecal slurry fermentation spiked with pathogens, Salmonella growth
Experimental: as §1, §2

[5] = tested on: infant intestinal microbiota; test: quad-SHIME model of infant intestinal microbiota (SCFA, glycoprofile); parameters: species or system human; Butyrate (Mean ± SD) / Iso-Butyrate (Mean ± SD) / Acetate (Mean ± SD): unit not given here; settings: distal colon
Description: A faecal sample from a healthy infant born via C-section, exclusively breastfed with no history of antibiotic usage, was used as inoculum to simulate the infant intestinal microbiota in the colon compartments of a quad-SHIME®—a dynamic model of the human gastrointestinal tract comprises 4 SHIME® units running in parallel and each SHIME® unit is composed of 3 reactors simulating the stomach and small intestine, proximal and distal colons.

Gal (beta 1-3)-Gal (beta 1-4)-Glc [3′-GL]
Klebsiella growth [1]: most inhibited
CCL17 levels [2]: no significant effect on CCL17 levels
levels of IL-4 and IL-13 compared to control [2]: a decrease was detected
Relative level of CCL17, observed [2]: 0.6212
Relative level of IL-4, observed [2]: 0.5825
Relative level of IL-13, observed [2]: 0.5472
rate of initial acidification [3]: high

C[C@@H]1O[C@@H](O[C@H]2[C@H](O[C@H]3[C@H](O)[C@@H](O)C(O)O[C@@H]3CO)O[C@H](CO)[C@H](O)[C@@H]2O)[C@@H](O)[C@H](O)[C@@H]1O (stereo partly drawn) [2′-FL, α-L-Fuc-(1→2)-β-D-Gal-(1→4)-D-Glc]
CCL17 levels [2]: no significant effect on CCL17 levels
levels of IL-4 and IL-13 compared to control [2]: had no effect on the levels of IL-4 and IL-13
Relative level of CCL17, observed [2]: 1.061
Relative level of IL-4, observed [2]: 0.9887
Relative level of IL-13, observed [2]: 1.039
extent of fermentation, as measured by NaOH consumption, i.e. acid production ([3]; both inocula, 2.5% (w/v) carbohydrate): slower and lower acidification
Salmonella growth ([4]; inoculum of baby 1): most restricted
Salmonella growth ([4]; inoculum of baby 2): most restricted
butyrate generation relative to the control and the scGOS/IcFOS groups [5]: generated earlier in the distal colon and at a higher concentration
Acetate (Mean ± SD) ([5]; D 1-D 3): 38.67 ± 10.25
Butyrate (Mean ± SD) ([5]; D 1-D 3): 0 ± 0
Iso-Butyrate (Mean ± SD) ([5]; D 1-D 3): 0 ± 0
Propionate (Mean ± SD) ([5]; D 1-D 3): 10.17 ± 3.01
Acetate (Mean ± SD) ([5]; D 4-D 11): 26.22 ± 0.97
Butyrate (Mean ± SD) ([5]; D 4-D 11): 0.74 ± 0.49
Iso-Butyrate (Mean ± SD) ([5]; D 4-D 11): 0.68 ± 0.75
Propionate (Mean ± SD) ([5]; D 4-D 11): 6.58 ± 0.49
Acetate (Mean ± SD) ([5]; D 12-D 15): 22.96 ± 1.04
Butyrate (Mean ± SD) ([5]; D 12-D 15): 0.99 ± 0.09
Iso-Butyrate (Mean ± SD) ([5]; D 12-D 15): 0.93 ± 0.21
Propionate (Mean ± SD) ([5]; D 12-D 15): 6.13 ± 0.63
